Reference: patent publication US20250002954A1, “Novel Compound, Use Thereof, and Method for Producing Same, and Compound-Containing Composition, Method for Producing 4-Trehalosamine, and Microorganism” (Microbial Chemistry Research Foundation, priority 2021, published 2025)

Assays:
[1] = test system: human ovarian cancer cells OVK18 and human malignant melanoma cells Mewo; assay: Autophagy inducing effect on cultured cells (western blotting of autophagy-related proteins); type: cell-based
Protocol: Expression and phosphorylation patterns of autophagy-related proteins when human ovarian cancer cells or human malignant melanoma cells were treated with 4-trehalosamine and trehalose analog for 24 hours were determined by western blotting.
Human ovarian cancer cells OVK18 (obtained from RIKEN BRC) and human malignant melanoma cells Mewo (JCRB0066) were each inoculated on a 12-well microplate at 8×10^4 cells/mL/well and cultured in DMEM culture medium at 37° C. for 72 hours, after which they were treated with test samples.
The test samples used were the 4-trehalosamine (4TA) obtained in the <Purification process> of production example 10, trehalose (TRH), the IMCTA-Cn compounds obtained in synthesis examples 1 to 8, trehalose ester (TRH-Cn) (manufactured by Dojindo Laboratories), n-dodecyl-β-D-maltoside (DDM), maltose (MLT), sucrose (SCR), and rapamycin (RM). Untreated cells without addition of compounds were used as control.
In treatment with the test samples, in order to avoid contact of a compound with locally high concentration with cells, a half of the culture fluid in each well was taken, and a required amount of test sample was dissolved in it. After dissolving it sufficiently, it was returned to the original well and treated at 37° C. for 24 hours.
Subsequently, culture medium containing the test samples was removed, washed once with PBS, and dissolved with 2×SDS sample buffer not containing 2-mercaptoethanol (2-ME) or bromphenol blue (BPB). After measuring the protein concentration in the dissolved sample with a BCA protein assay kit (manufactured by Thermo Fisher Scientific), 2-ME and BPB were added and the sample was boiled for 5 minutes, which was used as a sample for western blotting.
The western blotting was performed in a similar manner to test example 4 except that anti-LC3 antibody, which is a marker for autophagy, anti-p62, anti-cathepsin D antibody, anti-Phospho-Akt (Ser473) antibody, anti-Akt antibody, anti-Phospho-p70 S6K (T389) antibody, and anti-p70 S6K antibody (all manufactured by Cell Signaling Technology) were used at 1/2,000 dilution as the primary antibodies in the method described in test example 4.
The results for human ovarian cancer cells OVK18 are shown in FIGS. 20A to 20C, and the results for human malignant melanoma cells Mewo are shown in FIGS. 20D to 20F. In FIGS. 20A, 20B, 20D, and 20E, “PCD” denotes precursors of cathepsin D and “CD-HC” denotes cathepsin D heavy chain.

[2] = test system: human ovarian cancer cells OVK18 and human malignant melanoma cells Mewo; assay: LC3-II expression in combination with autophagy inhibitor (bafilomycin or chloroquine); type: cell-based; conditions: 50 mM 4-trehalosamine, 50 μM IMCTA-C14 or 100 mM trehalose 14 hours, then 200 nM BM or 100 μM CQ 4 hours
Protocol: As with the test example 10-1, human ovarian cancer cells OVK18 (obtained from RIKEN BRC) and human malignant melanoma cells Mewo (JCRB0066) were each inoculated on a 12-well microplate at 8×10^4 cells/mL/well, and cultured in DMEM culture medium at 37° C. for 72 hours. After that, a half of the culture fluid in each well was taken and each compound was dissolved so that the final concentration is 50 mM 4-trehalosamine, 50 μM IMCTA-C14, or 100 mM trehalose. After dissolving it sufficiently, the cells were returned to the original well and treated at 37° C. for 14 hours. Untreated cells without addition of the compounds were used as control.
After that, each autophagy inhibitor was added so that the final concentration is 200 nM bafilomycin (BM) or 100 μM chloroquine (CQ), and the cells were cultured at 37° C. for 4 hours. A group with no inhibitor added was cultured in a similar way. After culture, they were turned into samples for western blotting in a similar manner to test example 10-1.
The western blotting was performed in a similar manner to test example 4 except that anti-LC3 antibody (manufactured by Cell Signaling Technology) was used at 1/2,000 dilution as the primary antibody in the method described in test example 4. The results for human ovarian cancer cells OVK18 are shown in FIG. 21A, and the results for human malignant melanoma cells Mewo are shown in FIG. 21B.
Also, the results (graphs) of image analysis on the results of western blotting via Image J (manufactured by National Institutes of Health) are shown in FIGS. 21A and 21B (n=10, mean±S.D.). The vertical axis of the graph indicates the value of the amount of expression (expression amount ratio) of LC3-II for the groups with the different compounds added when the amount of expression of LC3-II in the control (untreated cells) is 1. […]

[3] = Measurement of micelle size by dynamic light scattering; type: physicochemical
Protocol: (§1) For the IMCTA-C8, IMCTA-C9, IMCTA-C10, IMCTA-C11, IMCTA-C12, IMCTA-C13, IMCTA-C14, and IMCTA-C15 (IMCTA-Cn) that were obtained in synthesis examples 1 to 8 and for n-dodecyl-β-D-maltoside (DDM) as control, “critical micelle concentration (CMC)”, “micelle size”, and “Hydrophilic-Lipophilic Balance (HLB) value” were measured or calculated in the following manner.
Micelle sizes were measured by dynamic light scattering with Zetasizer Nano S (manufactured by Malvern Panalytical).

[4] = test system: aggregated proteins Q74 and SynA53T in SH-SY5Y cells and NH-12 cells; assay: Elimination effect on aggregated protein in cells (Q74, SynA53T); type: cell-based, human; conditions: 100 mM 4-trehalosamine, 70 μM IMCTA-C14 or 100 mM trehalose, 14 hours; SH-SY5Y and NH-12 cells
Protocol: The effect of 4-trehalosamine or trehalose analog on Q74, which is partial peptide of huntingtin (Htt), the causal protein of Huntington's disease, and SynA53T, which is a mutation of α-synuclein, the causal protein of Parkinson's disease, (both aggregated proteins) was determined in the following manner.
Neuroblastoma cells SH-SY5Y (obtained from European Collection of Authenticated Cell Cultures (ECACC)) and human neuroblastoma cells NH-12 (obtained from RIKEN BRC) were each inoculated at 14×10^4 cells/mL and cultured in DMEM culture medium at 37° C. for 48 hours.
After the culture of SH-SY5Y cells and NH-12 cells, pEGFP-Q74 vector or EGFP-alphasynuclein-A53T (both obtained from addgene), which are expression vectors of aggregated protein, were transfected with transfection reagent (Viafect, manufactured by Promega). After 24 hours from the transfection, 100 mM 4-trehalosamine, 70 μM IMCTA-C14, or 100 mM trehalose was added and the cells were further treated for 14 hours. Untreated cells without addition of the compounds were used as control. After washing the cells three times with PBS, hyposmotic fluid (solution of one tablet of cOmplete, Mini, EDTA-free Protease Inhibitor Cocktail (CM, manufactured by Merck) in 50 mL of pure water) was added and the mixture was shaken on ice for 10 minutes. It was then centrifuged at 21,300×g for 10 minutes to be separated into soluble protein (Sol) and aggregated protein (Agg) […]. Thereafter, they were turned into samples for western blotting in a similar manner to test example 10-1.
The western blotting was performed in a similar manner to test example 4 except that anti-GFP antibody (manufactured by Proteintech) was used at 1/5,000 dilution and anti-LC3 antibody (manufactured by Cell Signaling Technology) was used at 1/2,000 dilution as the primary antibodies in the method described in test example 4. The results for neuroblastoma cells SH-SY5Y are shown in FIGS. 22A and 22B, and the results for human neuroblastoma cells NH-12 are shown in FIGS. 22C and 22D. […]

[5] = Measurement of critical micelle concentration (CMC) with CMC assay kit; type: physicochemical
Protocol: as §1
CMC was measured with a Detergent Critical Micelle Concentration (CMC) Assay Kit (CMC1000, manufactured by ProFoldin) according to the product protocol.

[6] = test system: Mycobacterium smegmatis mc^2 (ATCC 700084); assay: Staining of mycobacterium with IMCTA-fluorescein, IMCTA-biotin or IMCTA-azide; type: cell-based
[7] = test system: Mycobacterium smegmatis bacterial cells; assay: TLC analysis of lipid components of IMCTA-fluorescein stained cells; type: cell-based; conditions: bacterial cells which had ingested IMCTA-fluorescein
Protocol: TLC analysis was performed on the lipid components of bacterial cell suspension of Mycobacterium smegmatis bacterial cells stained with IMCTA-fluorescein in test example 11-1 or bacterial cell suspension of Mycobacterium smegmatis bacterial cells treated with DMSO.
The TLC analysis was performed based on the method of Kai et al. (M. Kai et al., FEBS Lett 2007, 581, p. 3345-3350).
The bacterial cell suspension of Mycobacterium smegmatis bacterial cells stained with IMCTA-fluorescein in test example 11-1 or the bacterial cell suspension of Mycobacterium smegmatis bacterial cells treated with DMSO was centrifuged at 21,300×g for 1 minute. […]
In the TLC analysis, a Silica gel 60 TLC plate (manufactured by Merck) was used and the solvent was developed with chloroform/methanol/acetone/acetonitrile (90:10:6:1, v/v). The lipid as a whole was detected with phosphomolybdic acid solution similar to that in test example 1 and fluorescence was detected with a UV trans-illuminator (NTFM-20, manufactured by Analytik Jena US LLC).
The phosphomolybdic acid staining patterns for the entire component are shown in FIG. 26A and the fluorescence detection patterns are shown in FIG. 26B. […] In FIG. 26B, the arrows indicate components for which fluorescence is seen only in the IMCTA-fluorescein treated sample.

Row | Structure (SMILES) | accumulation of PCD (precursors of cathepsin D) ([1]; 24 hours) | concentration giving same or higher LC3-II expression, relative to trehalose ([1]; 24 hours) | p62 ([1]; 24 hours) | pAkt ([1]; 24 hours) | phosphorylation of p70 S6K ([1]; 24 hours) | expression of LC3-II (autophagy marker) ([1]; 24 hours treatment, western blotting) | expression of LC3-II in combination with bafilomycin (BM) or chloroquine (CQ) [2] | Micelle size [3] [nm] | aggregate of Q74 and aggregate of SynA53T [4] | CMC [5] [mM] | ingestion into bacterial cells and fluorescence (staining) ([6]; 10 μg/mL IMCTA-fluorescein, 30 μg/mL IMCTA-biotin, 10 μg/mL IMCTA-azide, 37° C., 8 hours) | ingestion in the presence of sucrose (blocking) ([6]; sucrose 1% or 3%) | ingestion in the presence of trehalose (blocking) ([6]; trehalose 1% or 3%) | fluorescent lipids detected by TLC [7]
1 | CCCCCCCCCCCCCCN[C@@H]1C(CO)O[C@H](O[C@H]2OC(CO)[C@@H](O)C(O)C2O)C(O)C1O (some centres unmarked) [IMCTA-C14] | no accumulation of PCD was observed | several thousand times lower than trehalose | accumulation trend of p62 | decreasing trend of pAkt | p70 S6K was not dephosphorylated | particularly strong expression | increased expression of LC3-II | 16.5 ± 4.4 | significantly decreased | 0.11 |  |  |  | 
2 | O=C(N[C@@H]1C(CO)O[C@H](O[C@H]2OC(CO)[C@@H](O)C(O)C2O)C(O)C1O)c1ccc2c(c1)C(=O)OC21c2ccc(O)cc2Oc2cc(O)ccc21 (some centres unmarked) [IMCTA-fluorescein] |  |  |  |  |  |  |  |  |  |  | ingested into Mycobacterium smegmatis bacterial cells and emitted fluorescence | no significant inhibition | inhibition was observed in the presence of 1% trehalose | two fluorescent lipids were detected
